From PubChem BioAssay AID200 (DTP/NCI, 2004)
Several values for one entry are separate records, joined by “and”; a condition that tells them apart may be missing. Identical values can stand only once. Inconclusive results and toxic doses are left out. *1 amine or outer side, *2 acyl side, *3 side chain or, on linkers, in order; H or OH if unused. Where a SMILES comes first, the peptide text is derived from it. Bridges are numbered along the chain shown (N, C = ends). Roman numbers before positions name the chains, in order. [ ]: non-standard residue; d: D form. Actinocin(9to1) = Cc1c2oc3c(C)ccc(C(=O)[*:1])c3nc-2c(C(=O)[*:2])c(N)c1=O; NMeA = CN[CH](C)C(=O)O; Sar = CNCC(=O)O

System: B6C3F1 mice, B16 melanoma ip, median survival T/C
Assay: NCI In Vivo Anticancer Drug Screen. Data for tumor model B16 Melanoma (intraperitoneal) in B6C3F1 mice
Conditions: endpoint: median survival time, higher = longer survival
Method in brief: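 Readout: survival or tumor size in treated mice relative to vehicle controls (T/C). Model uses transplantable tumors grown in mice.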

[1] = dose: 12.5 mg/kg/injection, schedule: Q01DX009 (ip), vehicle: saline with Tween-80
[2] = dose: 25.0 mg/kg/injection, schedule: Q01DX009 (ip), vehicle: saline with Tween-80
[3] = dose: 50.0 mg/kg/injection, schedule: Q01DX009 (ip), vehicle: saline with Tween-80
[4] = dose: 100.0 mg/kg/injection, schedule: Q01DX009 (ip), vehicle: saline with Tween-80
[5] = dose: 200.0 mg/kg/injection, schedule: Q01DX009 (ip), vehicle: saline with Tween-80
[6] = dose: 12.5 mg/kg/injection, schedule: Q01DX009 (ip), vehicle: saline
[7] = dose: 25.0 mg/kg/injection, schedule: Q01DX009 (ip), vehicle: saline
[8] = dose: 50.0 mg/kg/injection, schedule: Q01DX009 (ip), vehicle: saline
[9] = dose: 100.0 mg/kg/injection, schedule: Q01DX009 (ip), vehicle: saline
[10] = dose: 200.0 mg/kg/injection, schedule: Q01DX009 (ip), vehicle: saline
[11] = dose: 400.0 mg/kg/injection, schedule: Q01DX009 (ip), vehicle: saline

Cc1c2oc3c(C)ccc(C(=O)NC4C(=O)NC(C(C)C)C(=O)N5CCCC5C(=O)N(C)CC(=O)N(C)C(C)C(=O)OC4C)c3nc-2c(C(=O)NC2C(=O)NC(C(C)C)C(=O)N3CCCC3C(=O)N(C)CC(=O)N(C)C(C)C(=O)OC2C)c(N)c1=O (configuration not stated) (I: TVP[Sar][NMeA] / II: TVP[Sar][NMeA]; ester I:1-I:C, II:1-II:C; linker I:N-II:N via Actinocin(9to1); configuration not given here)
T/C (dose: 0.25 mg/kg/injection, schedule: Q04DX003 (ip), vehicle: saline + alcohol): 116 % of control | T/C (dose: 0.5 mg/kg/injection, schedule: Q04DX003 (ip), vehicle: saline + alcohol): 118 % of control | T/C (dose: 1.0 mg/kg/injection, schedule: Q04DX003 (ip), vehicle: saline + alcohol): 112 % of control and 113 % of control | T/C (dose: 2.0 mg/kg/injection, schedule: Q04DX003 (ip), vehicle: saline + alcohol): 116 % of control and 104 % of control | T/C (dose: 4.0 mg/kg/injection, schedule: Q04DX003 (ip), vehicle: saline + alcohol): 115 % of control

O=C1OCC2C(=O)OCC12 (configuration not stated)
T/C [1]: 99 % of control | T/C [2]: 99 % of control | T/C [3]: 102 % of control | T/C [4]: 101 % of control | T/C [5]: 106 % of control

O=C(NCc1ccccc1)c1cccnc1
T/C [4]: 94 % of control | T/C [5]: 94 % of control | T/C (dose: 400.0 mg/kg/injection, schedule: Q01DX009 (ip), vehicle: saline with Tween-80): 93 % of control

CCCCCCCCCCCCCCCCNc1cccc2ccccc12
T/C [1]: 96 % of control | T/C [2]: 95 % of control | T/C [3]: 94 % of control and 97 % of control | T/C [4]: 92 % of control

CCOC(=O)C(N)CSC(=O)NC (configuration not stated)
T/C [6]: 103 % of control and 106 % of control | T/C [7]: 108 % of control and 92 % of control | T/C [8]: 103 % of control and 106 % of control | T/C [9]: 108 % of control and 93 % of control | T/C [10]: 109 % of control | T/C [11]: 124 % of control

CN1CCN(CN2C(=O)C3C4C=CC(C3C2=O)C2C3C(=O)N(CN5CCN(C)CC5)C(=O)C3C42)CC1 (configuration not stated)
T/C (dose: 16.1 mg/kg/injection, schedule: Q01DX009 (ip), vehicle: water): 103 % of control | T/C (dose: 21.6 mg/kg/injection, schedule: Q01DX009 (ip), vehicle: water): 104 % of control | T/C (dose: 26.8 mg/kg/injection, schedule: Q01DX009 (ip), vehicle: water): 98 % of control | T/C (dose: 36.0 mg/kg/injection, schedule: Q01DX009 (ip), vehicle: water): 102 % of control | T/C (dose: 44.7 mg/kg/injection, schedule: Q01DX009 (ip), vehicle: water): 107 % of control | T/C (dose: 60.0 mg/kg/injection, schedule: Q01DX009 (ip), vehicle: water): 104 % of control | T/C (dose: 74.5 mg/kg/injection, schedule: Q01DX009 (ip), vehicle: water): 103 % of control | T/C (dose: 100.0 mg/kg/injection, schedule: Q01DX009 (ip), vehicle: water): 120 % of control

O=C1c2ccccc2CCC1Br (configuration not stated)
T/C (dose: 1.5 mg/kg/injection, schedule: Q01DX009 (ip), vehicle: DMSO): 87 % of control | T/C (dose: 3.0 mg/kg/injection, schedule: Q01DX009 (ip), vehicle: DMSO): 86 % of control and 87 % of control | T/C (dose: 6.0 mg/kg/injection, schedule: Q01DX009 (ip), vehicle: DMSO): 91 % of control | T/C (dose: 12.0 mg/kg/injection, schedule: Q01DX009 (ip), vehicle: DMSO): 94 % of control

CCOC(=O)Nc1cc2c(c(N)n1)N=C(c1ccc(Cl)cc1Cl)CN2
T/C (dose: 1.5 mg/kg/injection, schedule: Q01DX009 (ip), vehicle: saline with Tween-80): 113 % of control and 119 % of control | T/C (dose: 3.0 mg/kg/injection, schedule: Q01DX009 (ip), vehicle: saline with Tween-80): 115 % of control | T/C (dose: 6.0 mg/kg/injection, schedule: Q01DX009 (ip), vehicle: saline with Tween-80): 115 % of control | T/C [1]: 155 % of control

O=C1c2ccccc2C(=O)c2c(NCCNCCO)ccc(O)c21
T/C (dose: 2.5 mg/kg/injection, schedule: Q01DX009 (ip), vehicle: suspension in saline): 118 % of control | T/C (dose: 20.0 mg/kg/injection, schedule: Q01DX009 (ip), vehicle: suspension in saline): 153 % of control | T/C (dose: 40.0 mg/kg/injection, schedule: Q01DX009 (ip), vehicle: suspension in saline): 184 % of control | T/C (dose: 80.0 mg/kg/injection, schedule: Q01DX009 (ip), vehicle: suspension in saline): 190 % of control

CCN(Cc1ccc(Cl)c(Cl)c1)c1ccc2nc(N)nc(N)c2c1C
T/C (dose: 3.12 mg/kg/injection, schedule: Q01DX009 (ip), vehicle: water): 112 % of control and 123 % of control | T/C (dose: 3.13 mg/kg/injection, schedule: Q01DX009 (ip), vehicle: distilled water + Tween-80): 120 % of control | T/C (dose: 6.25 mg/kg/injection, schedule: Q01DX009 (ip), vehicle: water): 124 % of control | T/C (dose: 12.5 mg/kg/injection, schedule: Q01DX009 (ip), vehicle: water): 92 % of control | T/C (dose: 25.0 mg/kg/injection, schedule: Q01DX009 (ip), vehicle: water): 150 % of control

COC(C(=O)C(O)C(C)O)C1CC2C=C3C=C(OC4CC(OC5CC(O)C(OC)C(C)O5)C(OC(C)=O)C(C)O4)C(C)C(=O)C3=C(O)C2=C(O)C1OC1CC(OC2CC(OC3CC(C)(O)C(OC(=O)C(C)C)C(C)O3)C(O)C(C)O2)C(O)C(C)O1 (configuration not stated)
T/C (dose: 62.5 micrograms/kg/injection, schedule: Q01DX009 (ip), vehicle: saline): 155 % of control

COC(=O)C(N)Cc1ccc(O)c(O)c1 (configuration not stated)
T/C [6]: 102 % of control | T/C [7]: 88 % of control and 102 % of control | T/C (dose: 25.0 mg/kg/injection, schedule: Q01DX012 (ip), vehicle: saline): 95 % of control | T/C (dose: 25.0 mg/kg/injection, schedule: Q01DX024 (ip), vehicle: saline): 95 % of control | T/C (dose: 25.0 mg/kg/injection, schedule: Q08HX120 (ip), vehicle: saline): 112 % of control | T/C [8]: 90 % of control and 100 % of control | T/C (dose: 50.0 mg/kg/injection, schedule: Q01DX012 (ip), vehicle: saline): 94 % of control | T/C (dose: 50.0 mg/kg/injection, schedule: Q01DX024 (ip), vehicle: saline): 97 % of control | T/C [9]: 94 % of control and 98 % of control and 106 % of control | T/C (dose: 100.0 mg/kg/injection, schedule: Q01DX012 (ip), vehicle: saline): 94 % of control and 101 % of control | T/C (dose: 100.0 mg/kg/injection, schedule: Q01DX024 (ip), vehicle: saline): 91 % of control and 99 % of control | T/C (dose: 100.0 mg/kg/injection, schedule: Q08HX120 (ip), vehicle: saline): 109 % of control | T/C (dose: 100.0 mg/kg/injection, schedule: Q#A X040 (ip), vehicle: saline): 91 % of control | T/C [10]: 111 % of control and 103 % of control and 106 % of control | T/C (dose: 200.0 mg/kg/injection, schedule: Q01DX012 (ip), vehicle: saline): 96 % of control and 105 % of control | T/C (dose: 200.0 mg/kg/injection, schedule: Q01DX024 (ip), vehicle: saline): 97 % of control and 106 % of control | T/C (dose: 200.0 mg/kg/injection, schedule: Q08HX120 (ip), vehicle: saline): 110 % of control | T/C (dose: 200.0 mg/kg/injection, schedule: Q#A X040 (ip), vehicle: saline): 100 % of control | T/C [11]: 117 % of control and 100 % of control and 105 % of control | T/C (dose: 400.0 mg/kg/injection, schedule: Q01DX012 (ip), vehicle: saline): 117 % of control and 102 % of control | T/C (dose: 400.0 mg/kg/injection, schedule: Q01DX024 (ip), vehicle: saline): 108 % of control and 104 % of control | T/C (dose: 400.0 mg/kg/injection, schedule: Q#A X040 (ip), vehicle: saline): 95 % of control | T/C (dose: 600.0 mg/kg/injection, schedule: Q#A X040 (ip), vehicle: saline): 95 % of control | T/C (dose: 800.0 mg/kg/injection, schedule: Q01DX009 (ip), vehicle: saline): 117 % of control | T/C (dose: 800.0 mg/kg/injection, schedule: Q01DX012 (ip), vehicle: saline): 116 % of control

COc1cc2cc(c1Cl)N(C)C(=O)CC(O)C1(C)OC1C(C)C1CC(O)(NC(=O)O1)C(OC)/C=C/C=C(C)C2OC (configuration not stated)
T/C (dose: 4.0 micrograms/kg/injection, schedule: Q01DX009 (ip), vehicle: distilled water + alcohol): 105 % of control | T/C (dose: 8.0 micrograms/kg/injection, schedule: Q01DX009 (ip), vehicle: distilled water + alcohol): 96 % of control | T/C (dose: 16.0 micrograms/kg/injection, schedule: Q01DX009 (ip), vehicle: distilled water + alcohol): 102 % of control | T/C (dose: 32.0 micrograms/kg/injection, schedule: Q01DX009 (ip), vehicle: distilled water + alcohol): 88 % of control

Cn1c(=O)c2c(nc(CCCCc3nc4c(c(=O)n(C)c(=O)n4C)n3C)n2C)n(C)c1=O
T/C (dose: 0.78 mg/kg/injection, schedule: Q01DX009 (ip), vehicle: saline with Tween-80): 91 % of control | T/C (dose: 1.56 mg/kg/injection, schedule: Q01DX009 (ip), vehicle: saline with Tween-80): 109 % of control | T/C (dose: 3.13 mg/kg/injection, schedule: Q01DX009 (ip), vehicle: saline with Tween-80): 93 % of control | T/C (dose: 6.25 mg/kg/injection, schedule: Q01DX009 (ip), vehicle: saline with Tween-80): 93 % of control
